Patent US20240091328A1, “FORMULATIONS AND METHODS FOR MHC-I RESTRICTED EPITOPE IMMUNIZATION” (The Research Foundation for The State University of New York, priority 2021, published 2024)

Columns and labels:
TC-1 cells = assay: Therapeutic vaccine tumor model, subcutaneous TC-1; type: in vivo, C57BL/6 mice; details: E7HHH49-57 admixed with poly(I:C), up to 20 μg peptide
Excerpt: (§1) FIG. 23. Immunization with E7HHH49-57-admixed with CPQ inhibits tumor growth in a therapeutic setting more potently than poly(I:C). C57BL/6 mice were inoculated with TC-1 cells subcutaneously on day 0; then different vaccines were given 2 days post-tumor inoculation. Blood was collected 18 days post-tumor inoculation for CD8^+ T cell analyses. (A) Tumor growth of mice that vaccinated with indicated vaccine. (B) Tumor sizes of mice on day 19. (C) Survival of mice. (D) Percentage of CD8^+E749-57 tet^+ cells in the blood. Error bars show mean+/−std. dev. for n=5 per group. * p<0.05, ** p<0.01 and **** p<0.0001, analyzed by (C) long rank test or (D) one-way ANOVA with Bonferroni multiple comparisons post-test.
(§2) Since CPQ/E7HHH49-57 was effective in a prophylactic setting, we next assessed the vaccine on established TC-1 tumors, which is also the setting in which most cancer vaccines would be initially tested clinically. Poly(I:C) was used as an adjuvant comparator. For poly(I:C), the synthetic short peptide dose ranged from […] per mouse while the poly(I:C) dose remained fixed at […]. For the CPQ liposome adjuvant, the peptide dosing varied from […] per mouse. Given that the ratio of liposomes to peptide was fixed, this corresponds to a 3D6A-PHAD dose and QS-21 dose ranging from 1.6 to 0.16 μg, along with a CoPoP dose ranging from 4 to 0.4 μg. […]

[1] = system: E749-57 specific CD8^+ T cells; assay: E749-57 tetramer staining of CD8+ T cells in blood; type: in vivo, C57BL/6 mice; details: E7HHH49-57 admixed with poly(I:C), 19 days post-tumor inoculation
Excerpt: as §1, with “Blood was collected 18 days post-tumor inoculation for CD8^+ T cell analyses.” left out
as §2

[2] = system: AH1-specific CD8^+ T cells; assay: AH1 tetramer staining of CD8+ T cells after immunization; type: in vivo, BALB/c mice; details: CPQ with 1 μg total peptide, days 0 and 7, blood day 14
Method: In vivo immunization: Murine studies were performed according to protocols approved by the University at Buffalo IACUC. 5-6 week-old female BALB/c mice (Charles River Laboratories, strain BALB/cAnNCrl) were immunized intramuscularly on the right hind leg. BALB/cJ mice (Jackson Laboratories) were used in this study only for DNA sequencing where indicated.
For tetramer staining, immunized mice were analyzed for the percentages of tumor Ag-specific CD8^+ T cells by a tetramer staining assay. H-2L^d-restricted AH1 ([…]) peptide was complexed with MHC-I (H-2L^d) and conjugated with PE (the NIH Tetramer core facility). 60 μL of blood incubated with the AH1 tetramer for 1 hr at 4° C. (100× dilution), then incubated with CD8a, MHC-II (IA/IE), B220, CD4, CD44 and CD62L antibodies for 30 min at 4° C. (1000× dilution). Red blood cells were lysed by cell lysis buffer for 5 mins then cells were centrifuged at 500×g for another 5 min. The cell pellets were washed twice for flow cytometry analysis. For tetramer staining of splenocytes, 1×10^6 cells were incubated with tetramer and antibodies in the same condition as blood, and then washed twice for flow cytometry analysis. Flow cytometry studies were carried out using a BD LSRFortessam X-20 cytometer. Flowjo (version 10) software was used for data analysis.

Substance | Time within which tumors of all mice reached the 1 cm endpoint (TC-1 cells) | Ag-specific CD8^+ T cells in the blood [1] | CD8^+ T cells that were Ag specific (AH1 tet^+) [2]
Polyinosinic:polycytidylic acid [poly(I:C)] | ≤ 60 days | almost no | –
SPSYVYHQF [AH1] | – | – | did not elicit detectable amount
